This assay has as its target T1, cloned human M4 receptor (human Muscarinic receptor subtype 4) (Homo sapiens, UniProt P08173).
T1 construct: purchased Perkin-Elmer RBHM4M; host or cells: Chinese hamster ovary cells (CHO) membranes
T1 sequence (P08173 1-479): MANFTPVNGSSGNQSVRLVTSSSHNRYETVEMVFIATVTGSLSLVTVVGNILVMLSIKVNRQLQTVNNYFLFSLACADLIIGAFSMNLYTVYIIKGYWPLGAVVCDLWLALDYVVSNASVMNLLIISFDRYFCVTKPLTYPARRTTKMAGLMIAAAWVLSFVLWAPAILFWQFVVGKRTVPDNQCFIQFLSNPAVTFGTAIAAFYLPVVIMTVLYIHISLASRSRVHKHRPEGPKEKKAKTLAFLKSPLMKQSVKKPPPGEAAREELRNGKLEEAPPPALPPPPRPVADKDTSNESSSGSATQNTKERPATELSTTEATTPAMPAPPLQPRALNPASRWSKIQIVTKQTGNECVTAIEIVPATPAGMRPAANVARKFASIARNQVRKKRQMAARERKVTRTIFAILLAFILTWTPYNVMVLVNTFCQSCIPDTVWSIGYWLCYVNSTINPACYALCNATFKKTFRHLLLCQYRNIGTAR
Kind of assay: hM4 receptor GTPγS binding. Particulars: CHO cell membranes expressing hM4; [35S]GTPγS binding; read-out: hM4 EC50. It is filed as biochemical. As for the experimental part:
hM4 Receptor GTPγS Binding
Membranes produced from Chinese hamster ovary cells (CHO) expressing the cloned human M4 receptor (human Muscarinic receptor subtype 4, gene bank access NM_000741), are obtained from Perkin-Elmer (RBHM4M). The membranes are thawed at 37° C., passed 3 times through a 23-gauge blunt-end needle, diluted in the GTPγS binding buffer (50 mM Hepes, 20 mM NaOH, 100 mM NaCl, 1 mM EDTA, 5 mM MgCl2, pH 7.4, 100 μM DTT). The EC50, IC50 and Emax of the compounds of the invention are evaluated from 10-point dose-response curves (three fold concentration range) done in 60 μl in 384-well non-specific binding surface plate (Corning). Ten microliters from the dose-response curves plate (5× concentration) are transferred to another 384 well plate containing 25 μl of the following: 10 μg of hM4 membranes, 500 μg of Flashblue beads (Perkin-Elmer) and GDP 40 μM. An additional 15 μl containing 3.3× (60,000 dpm) of GTPγ^35S (0.4 nM final) are added to the wells resulting in a total well volume of 50 μl. Basal and maximal stimulated [^35S]GTPγS binding are determined in absence and presence of 30 μM final of acetylcholine agonist. The membranes/beads mix are pre-incubated for 15 minutes at room temperature with 40 μM GDP prior to distribution in plates (20 μM final). The reversal of acetylcholine-induced stimulation (10 μM final) of [^35S]GTPγS binding is used to assay the antagonist properties (IC50) of the compounds. The plates are incubated for 60 minutes at room temperature then centrifuged at 400 rpm for 5 minutes. The radioactivity (cpm) is counted in a Trilux (Perkin-Elmer).
Values of EC50, IC50 and Emax are obtained using sigmoidal fits of a non-linear curve-fitting program (XLfit version 4.2.2 Excel add-in version 4.2.2 build 18 math 1Q version 2.1.2 build 18) of percent stimulated [^35S]GTPγS binding vs. log(molar ligand). All pEC50 and plC50 values are reported as arithmetic means ±standard error of mean of ‘n’ independent experiments.

Consider `COC(=O)N1CCC(C)(N2CCC(N3C(=O)Cc4ccc(F)cc43)CC2)C1` (single isomer, unassigned) [Example 76, methyl 3-(4-(6-fluoro-2-oxoindolin-1-yl)piperidin-1-yl)-3-methylpyrrolidine-1-carboxylate], for which the concentration for a half-maximal effect (EC50) is greater than 90000 nM. Take `CCOC(=O)N1CCC(C)(N2CCC(N3C(=O)Cc4cc(F)ccc43)CC2)C1` (single isomer, unassigned) [Example 79, ethyl 3-(4-(5-fluoro-2-oxoindolin-1-yl)piperidin-1-yl)-3-methylpyrrolidine-1-carboxylate]: the 50% effective concentration (EC50) worked out at 4330 nM. Consider `CCOC(=O)N1CCC(C)(N2CCC(n3c(=O)[nH]c4cc(F)c(C)cc43)CC2)C1` (single isomer, unassigned) [Example 55, ethyl 3-(4-(5-fluoro-6-methyl-2-oxo-2,3-dihydro-1H-benzo[d]imidazol-1-yl)piperidin-1-yl)-3-methylpyrrolidine-1-carboxylate], for which the concentration giving a half-maximal response (EC50) came to 1710 nM. In the case of `COC(=O)N1CCC(C)(N2CCC(n3c(=O)[nH]c4cc(F)ccc43)CC2)C1` (centres unmarked) [Example 8, methyl 3-(4-(5-fluoro-2-oxo-2,3-dihydro-1H-benzo[d]imidazol-1-yl)piperidin-1-yl)-3-methylpyrrolidine-1-carboxylate], the EC50 is 5210 nM. For the molecule `C#CCOC(=O)N1CCC(C)(N2CCC(n3c(=O)[nH]c4cc(F)ccc43)CC2)C1` (single isomer, unassigned) [Example 25, prop-2-ynyl 3-(4-(5-fluoro-2-oxo-2,3-dihydro-1H-benzo[d]imidazol-1-yl)piperidin-1-yl)-3-methylpyrrolidine-1-carboxylate], the concentration giving a half-maximal response (EC50) was determined as 684 nM. With `Cc1ccc2[nH]c(=O)n(C3CCN(C4(C)CCN(C(=O)OCCF)C4)CC3)c2c1` (single isomer, unassigned) [Example 28, 2-fluoroethyl 3-methyl-3-(4-(6-methyl-2-oxo-2,3-dihydro-1H-benzo[d]imidazol-1-yl)piperidin-1-yl)pyrrolidine-1-carboxylate], the EC50 was determined as 8390 nM. The result for `CCOC(=O)N1CCC(C)(N2CCC(n3c(=O)[nH]c4cc(C)ccc43)CC2)C1` (single isomer, unassigned) [Example 12, ethyl 3-methyl-3-(4-(5-methyl-2-oxo-2,3-dihydro-1H-benzo[d]imidazol-1-yl)piperidin-1-yl)pyrrolidine-1-carboxylate] reads 2000 nM; that for `CC1(N2CCC(n3c(=O)[nH]c4cc(F)c(F)cc43)CC2)CCN(C(=O)OCCF)C1` (single isomer, unassigned) [Example 61, 2-fluoroethyl 3-(4-(5,6-difluoro-2-oxo-2,3-dihydro-1H-benzo[d]imidazol-1-yl)piperidin-1-yl)-3-methylpyrrolidine-1-carboxylate], 4420 nM; that for `COC(=O)N1CCC(C)(N2CCC(n3c(=O)[nH]c4ccc(F)cc43)CC2)C1` (single isomer, unassigned) [Example 52, methyl 3-(4-(6-fluoro-2-oxo-2,3-dihydro-1H-benzo[d]imidazol-1-yl)piperidin-1-yl)-3-methylpyrrolidine-1-carboxylate], 5090 nM. Then `C#CCOC(=O)N1CCC(C)(N2CCC(n3c(=O)[nH]c4ccc(C)cc43)CC2)C1` (single isomer, unassigned) [Example 41, prop-2-ynyl 3-methyl-3-(4-(6-methyl-2-oxo-2,3-dihydro-1H-benzo[d]imidazol-1-yl)piperidin-1-yl)pyrrolidine-1-carboxylate], with 8800 nM; and `COC(=O)N1CCC(C)(N2CCC(n3c(=O)[nH]c4cc(F)c(F)cc43)CC2)C1` (single isomer, unassigned) [Example 60, methyl 3-(4-(5,6-difluoro-2-oxo-2,3-dihydro-1H-benzo[d]imidazol-1-yl)piperidin-1-yl)-3-methylpyrrolidine-1-carboxylate], with 5080 nM; and `CC#CCOC(=O)N1CCC(C)(N2CCC(n3c(=O)[nH]c4cc(C)ccc43)CC2)C1` (single isomer, unassigned) [Example 21, but-2-ynyl 3-methyl-3-(4-(5-methyl-2-oxo-2,3-dihydro-1H-benzo[d]imidazol-1-yl)piperidin-1-yl)pyrrolidine-1-carboxylate], with 262 nM. On to `Cc1ccc2[nH]c(=O)n(C3CCN(C4(C)CCN(C(=O)OCCF)C4)CC3)c2c1` (single isomer, unassigned) [Example 26, 2-fluoroethyl 3-methyl-3-(4-(6-methyl-2-oxo-2,3-dihydro-1H-benzo[d]imidazol-1-yl)piperidin-1-yl)pyrrolidine-1-carboxylate], for which the EC50 was 857 nM. With `CCOC(=O)N1CCC(C)(N2CCC(N3C(=O)Cc4cc(F)c(C)cc43)CC2)C1` (single isomer, unassigned) [Example 82, ethyl 3-(4-(5-fluoro-6-methyl-2-oxoindolin-1-yl)piperidin-1-yl)-3-methylpyrrolidine-1-carboxylate], the 50% effective concentration (EC50) is 937 nM. The result for `CCOC(=O)N1CCC(C)(N2CCC(N3C(=O)Cc4ccc(F)cc43)CC2)C1` (single isomer, unassigned) [Example 74, ethyl 3-(4-(6-fluoro-2-oxoindolin-1-yl)piperidin-1-yl)-3-methylpyrrolidine-1-carboxylate] reads 3600 nM; that for `COC(=O)N1CCC(C)(N2CCC(n3c(=O)[nH]c4ccccc43)CC2)C1` (racemic) [Example 2, methyl 3-methyl-3-(4-(2-oxo-2,3-dihydro-1H-benzo[d]imidazol-1-yl)piperidin-1-yl)pyrrolidine-1-carboxylate], 2480 nM. The result for `CCOC(=O)N1CCC(C)(N2CCC(n3c(=O)[nH]c4cc(F)c(F)cc43)CC2)C1` (single isomer, unassigned) [Example 57, ethyl 3-(4-(5,6-difluoro-2-oxo-2,3-dihydro-1H-benzo[d]imidazol-1-yl)piperidin-1-yl)-3-methylpyrrolidine-1-carboxylate] reads 2200 nM; that for `CC#CCOC(=O)N1CCC(C)(N2CCC(n3c(=O)[nH]c4cc(F)ccc43)CC2)C1` (single isomer, unassigned) [Example 22, but-2-ynyl 3-(4-(5-fluoro-2-oxo-2,3-dihydro-1H-benzo[d]imidazol-1-yl)piperidin-1-yl)-3-methylpyrrolidine-1-carboxylate], 421 nM. Then `CCOC(=O)N1CCC(C)(N2CCC(n3c(=O)[nH]c4cc(F)ccc43)CC2)C1` (single isomer, unassigned) [Example 6, ethyl 3-(4-(5-fluoro-2-oxo-2,3-dihydro-1H-benzo[d]imidazol-1-yl)piperidin-1-yl)-3-methylpyrrolidine-1-carboxylate], with 1730 nM; and `C#CCOC(=O)N1CCC(C)(N2CCC(n3c(=O)[nH]c4cc(C)ccc43)CC2)C1` (single isomer, unassigned) [Example 44, prop-2-ynyl 3-methyl-3-(4-(5-methyl-2-oxo-2,3-dihydro-1H-benzo[d]imidazol-1-yl)piperidin-1-yl)pyrrolidine-1-carboxylate], with 107 nM. For the molecule `CCOC(=O)N1CCC(C)(N2CCC(n3c(=O)[nH]c4ccccc43)CC2)C1` (centres unmarked) [Example 1, ethyl 3-methyl-3-(4-(2-oxo-2,3-dihydro-1H-benzo[d]imidazol-1-yl)piperidin-1-yl)pyrrolidine-1-carboxylate], the concentration for a half-maximal effect (EC50) was determined as 1700 nM. Take `CCOC(=O)N1CCC(C)(N2CCC(n3c(=O)[nH]c4cc(F)ccc43)CC2)C1` (single isomer, unassigned) [Example 7, ethyl 3-(4-(5-fluoro-2-oxo-2,3-dihydro-1H-benzo[d]imidazol-1-yl)piperidin-1-yl)-3-methylpyrrolidine-1-carboxylate]: the EC50 was greater than 24400 nM. Then `CC1(N2CCC(n3c(=O)[nH]c4ccccc43)CC2)CCN(C(=O)OCCF)C1` (single isomer, unassigned) [Example 31, 2-fluoroethyl 3-methyl-3-(4-(2-oxo-2,3-dihydro-1H-benzo[d]imidazol-1-yl)piperidin-1-yl)pyrrolidine-1-carboxylate], with 1190 nM.

(Values after patent US20090221642A1, “MUSCARINIC RECEPTOR AGONISTS, COMPOSITIONS, METHODS OF TREATMENT THEREOF, AND PROCESSES FOR PREPARATION THEREOF-176” (AstraZeneca AB, priority 2008, published 2009).)
